A short description of data set [1]: Cytotoxicity against human MT4 cells assessed as reduction in cell viability. Format: toxicity, cell-based.
The subject of data set [2] is Human immunodeficiency virus 1. Nature of the data set: Anti-HIV activity against HIV-1 infected in human MT4 cells assessed as inhibition of viral replication. Format: functional, organism-based. The settings on record: Human immunodeficiency virus 1, MT4.
The test system of data set [3] is Human immunodeficiency virus 1. Nature of the data set: Anti-HIV activity against HIV-1 infected in human CEM-TK(-) cells assessed as inhibition of viral replication. Format: functional, organism-based. The settings on record: Human immunodeficiency virus 1, CEM-TK(-).
For data set [4], the system named is CEM-SS. Nature of the data set: Cytotoxicity against human CEM-SS cells assessed as reduction in cell viability. Format: functional.
Data set [5] concerns CEM-TK(-). Nature of the data set: Cytotoxicity against human CEM-TK(-) cells assessed as reduction in cell viability. Format: functional.
Data set [6] relates to Human immunodeficiency virus 1. Description: Anti-HIV activity against HIV-1 infected in human CEM-SS cells assessed as inhibition of viral replication. Format: functional, organism-based. The settings on record: Human immunodeficiency virus 1, CEM-SS.
Data set [7] in a line: Prodrug conversion in human CEM-SS cell extract assessed as parent ddA formation at 0.00005 M measured at 50 to 150 hrs by HPLC analysis. The settings on record: 50 µM, time 50-150 hrs. Format: ADME, cell-based.
Data set [8] concerns Human immunodeficiency virus 1. Nature of the data set: Anti-HIV activity against HIV-1 infected in human PBMC assessed as inhibition of viral replication. Format: functional, organism-based. The settings on record: Human immunodeficiency virus 1, PBMC.
The nature of data set [9]: Cytotoxicity against human PBMC assessed as reduction in cell viability. Format: toxicity, cell-based.
Data set [10] relates to Human immunodeficiency virus 1. Description: Anti-HIV activity against HIV-1 infected in human MDM assessed as inhibition of viral replication. Format: functional, organism-based.
Data set [11] is described as follows: Stability of compound in human CEM-SS cell extract at pH 7.45 assessed as compound half life by HPLC analysis. Format: ADME, cell-based.
Data set [12] in a line: Stability of compound in phosphate buffer at pH 7.4 assessed as compound half life by HPLC analysis. Format: physicochemical.
Data set [13] in a line: Prodrug conversion in human CEM-SS cell extract assessed as O-((2S,5R)-5-(6-amino-9H-purin-9-yl)tetrahydrofuran-2-yl)methyl S-2-(pivaloylthio)ethyl phos-phorothioate sodium salt metabolite formation at 0.00005 M measured at 5 to 15 hrs by HPLC analysis. The settings on record: 50 µM, time 5-15 hrs. Format: ADME, cell-based.
Data set [14] is described as follows: Stability of compound in inactivated fetal calf serum with RPMI 1640 culture medium assessed as compound half life by HPLC analysis. Format: ADME, cell-free, Bos taurus. The settings on record: cattle.
Data set [15] can be described thus: Stability of compound in RPMI 1640 culture medium at pH 7.45 assessed as compound half life by HPLC analysis. Format: physicochemical.
Data set [16] in a line: Cytotoxicity against human MDM assessed as reduction in cell viability. Format: toxicity, cell-based.
Data set [17] is described as follows: Prodrug conversion in human CEM-SS cell extract assessed as ddAMP formation at 0.00005 M measured at 100 to 500 mins by HPLC analysis. To be noted: 50 µM, time 100-500 min. Format: ADME, cell-based.
A short description of data set [18]: Stability of compound in RPMI 1640 culture medium at pH 7.45 by HPLC analysis. The settings on record: buffer. Format: physicochemical.
Data set [19] in a line: Stability of compound in phosphate buffer at pH 7.4 by HPLC analysis. Format: physicochemical.
Data set [20] in a line: Prodrug conversion in human CEM-SS cell extract assessed as metabolite X formation at 0.00005 M measured at 100 to 500 mins by HPLC analysis. Format: ADME, cell-based. The settings on record: 50 µM, time 100-500 min.
The nature of data set [21]: Prodrug conversion in inactivated fetal calf serum with RPMI 1640 culture medium assessed as S-(O-pivaloyl-2-oxyethyl)O-2',3'-dideoxyadenosin-5'-yl phos-phorothiolate diester sodium salt metabolite formation at 0.00005 M measured at 50 to 150 hrs by HPLC analysis. Format: ADME, cell-free, Bos taurus. To be noted: cattle, 50 µM, time 50-150 hrs.
The nature of data set [22]: Prodrug conversion in human CEM-SS cell extract assessed as S-(O-pivaloyl-2-oxyethyl)O-2',3'-dideoxyadenosin-5'-yl phos-phorothiolate diester sodium salt metabolite formation at 0.00005 M measured at 5 to 15 hrs by HPLC analysis. Format: ADME, cell-based. The settings on record: 50 µM, time 5-15 hrs.

Some results are limits rather than exact numbers.

From ChEMBL document CHEMBL5120747, “Mononucleoside phosphorodithiolates as mononucleotide prodrugs” (Eur J Med Chem, 2022) come the findings set out here.

The term CC50 denotes the concentration giving 50% cytotoxicity. Broadly, the EC50 is the concentration needed to bring the measured effect to its halfway point. The half-life is how long it takes for the measured level to halve.

For the molecule `Cc1cn([C@H]2C=C[C@@H](COP(=O)(OCCSC(=O)C(C)(C)C)OCCSC(=O)C(C)(C)C)O2)c(=O)[nH]c1=O`, the CC50 in data set [1] was over 10000 nM; in data set [4] it was over 10000 nM; in data set [5], 4600 nM. In addition, the EC50 in [2] was found to be 260 nM; in [3], 21 nM; in data set [6], 30 nM.

Take `Nc1ncnc2c1ncn2[C@H]1CC[C@@H](COP(=O)(O)O)O1`: in data set [7], the Drug metabolism result was “Metabolite_Detected”.

As to `Cc1cn([C@H]2C=C[C@@H](CO)O2)c(=O)[nH]c1=O` [STAVUDINE], the CC50 in data set [1], in data set [4] and in data set [5] was over 100000 nM each time. Further, the EC50 is 280 nM in [2], over 10000 nM in [3] and 59 nM in data set [6].

For `CC(C)(C)C(=O)SCCOP(=O)(OCCSC(=O)C(C)(C)C)OC[C@@H]1C=C[C@H](n2cnc3c(N)ncnc32)O1`, the EC50 was found to be 47 nM in data set [8], 0.16 nM in data set [10], 320 nM in data set [2] and 18 nM in [6]. For the same molecule, the CC50 was 9000 nM in data set [1], 1700 nM in data set [9], 5900 nM in data set [4] and 3600 nM in data set [16]. For the same molecule, the half-life in data set [11] is 1 h; in data set [12], 432 h; in data set [14], 166 h; in [15], 302 h. The Drug metabolism result in [13] is listed as “Metabolite_Detected”.

For the molecule `Cc1cn([C@H]2C=C[C@@H](COP(=O)(SCCOC(=O)C(C)(C)C)SCCOC(=O)C(C)(C)C)O2)c(=O)[nH]c1=O`, the CC50 in [1] was over 10000 nM; in [4] it was over 10000 nM; in [5], 8000 nM. The EC50 in [2] turned out to be 99 nM; in data set [3], 5 nM; in data set [6], 27 nM.

Regarding `Cc1cn([C@H]2CC[C@@H](COP(=O)(SCCOC(=O)C(C)(C)C)SCCOC(=O)C(C)(C)C)O2)c(=O)[nH]c1=O`, the CC50 in data set [1], in data set [4] and in [5] was over 10000 nM throughout. Moreover, the EC50 in [2] was determined as 900 nM; in [3], 50 nM; in data set [6], 80 nM.

In the case of `Cc1cn([C@H]2CC[C@@H](CO)O2)c(=O)[nH]c1=O`, the CC50 in data set [1], in data set [4] and in [5] was over 100000 nM throughout. Moreover, the EC50 in [2] was 16000 nM; in data set [3] it was over 100000 nM; in data set [6], 700 nM.

With `CC(C)(C)C(=O)OCCSP(=O)([O-])OC[C@@H]1CC[C@H](n2cnc3c(N)ncnc32)O1.[Na+]`, the Drug metabolism entry in data set [17] is “Metabolite_Detected”. For the same molecule, the Stability entry in [18] and in [19] was “Stable” each time.

As for `Cc1cn([C@H]2CC[C@@H](COP(=O)(OCCSC(=O)C(C)(C)C)OCCSC(=O)C(C)(C)C)O2)c(=O)[nH]c1=O`, the CC50 in data set [1], in data set [4] and in data set [5] was over 10000 nM throughout. Moreover, the EC50 in data set [2] was 2500 nM; in [3], 50 nM; in data set [6] it was 220 nM.

Consider `CC(C)(C)C(=O)SCCOP(=O)([O-])OC[C@@H]1CC[C@H](n2cnc3c(N)ncnc32)O1.[Na+]`, for which the Drug metabolism entry in data set [17] and in data set [20] was “Metabolite_Detected” each time. In addition, the Stability entry in data set [18] and in [19] was “Stable” throughout.

As to `Nc1ncnc2c1ncn2[C@H]1CC[C@@H](CO)O1`, the EC50 in data set [8] is 240 nM; in [10], 120 nM; in data set [2], 7800 nM; in data set [6] it was 490 nM. Also, the CC50 in [1] is over 100000 nM; in [9], over 100000 nM; in data set [4], over 100000 nM; in data set [16], 100000 nM.

For `CC(C)(C)C(=O)OCCSP(=O)(OC[C@@H]1CC[C@H](n2cnc3c(N)ncnc32)O1)SCCOC(=O)C(C)(C)C`, the Drug metabolism result in data set [21] and in data set [22] was “Metabolite_Detected” each time. Besides, the EC50 came to 20 nM in [8], 0.23 nM in data set [10], 270 nM in data set [2] and 25 nM in [6]. The CC50 in data set [1] was over 1000 nM; in data set [9], over 10000 nM; in data set [4], over 10000 nM; in data set [16], 8600 nM. The half-life was 5.3 h in data set [11], 69.6 h in [12], 38.4 h in data set [14] and 52.8 h in data set [15].
